pIC50: −log10 of the molar value.
Target: CXCR7 receptor (Homo sapiens (Human), UniProt P25106)
Assay: Serum Binding Analysis: displacement of 125I-labeled SDF-1 from CXCR7 in 100% human serum
Details: 125I SDF-1 displacement in 100% human serum, MCF-7 and/or MDA-MB-435S CXCR7 transfected cells, 3 hrs at 4° C.; read-out: Avg Ser IC50
Experimental: The compounds were combined with cells expressing the CXCR7 receptor (e.g., MCF cells or cells transfected to express CXCR7) in the presence of the 125 I-labeled SDF-1 chemokine as detailed in Determination of IC50 values. Reagents and Cells (see below). The ability of the compounds to displace the labeled chemokine from the CXCR7 receptor sites at multiple concentrations was then determined with the screening process.
In Table 1, Avg Bind IC50 refers to the Buffer Binding Analysis described below, while Avg Ser IC50 refers to the Serum Binding Analysis described below. All compounds were prepared as described in the Examples above, or by related methods substituting readily available starting materials.
^125I-labeled SDF-1 was purchased from Perkin-Elmer Life Sciences, Inc. (Boston, Mass.). The MCF-7 (adenocarcinoma; mammary gland) cell line was obtained from the American Type Culture Collection (ATCC, Manassas, Va.) or and was cultured in DMEM (Mediatech, Herndon, Va.) supplemented with 10% fetal bovine serum (FBS) (HyClone Logan, Utah) and bovine insulin (0.01 mg/mL) (Sigma. St. Louis, Mo.) at 37° C. in a humidified incubator at a 5% CO2/air mixture. CXCR7 transfected MDA-MB-435S were produced as described below. MDA-MB-435S human breast cancer line, was purchased from ATCC, and cultured in DMEM/10% FBS medium. The complete coding sequence of the gene encoding CXCR7 (a.k.a. CCXCKR2, hRDC1), was isolated from MCF-7 cells using μMACs mRNA isolation kit (Miltenyi Biotec, Auburn, Calif.). DNA contamination was removed by DNase digestion via RNeasy columns (Qiagen, Inc., Valencia, Calif.) and cDNA was generated using GeneAmp RNA PCR Core Kit (Applied Biosystems, Foster City. Calif.). PCR of cDNA samples was performed using Taq PCR Master Mix kit (Qiagen. Inc.) and hRDC1 primers harboring 5′ and 3′ Not I sites (hRDC1F 5′ […]-3, hRDC1R 5′-[…]-3′) Not I digested PCR product was ligated into Not I digested pcDNA3.1(+)(Invitrogen, Carlsbad, Calif.) and screened for orientation and sequence confirmed. Plasmid DNA was then isolated from overnight bacterial cultures by Maxiprep (Qiagen, Inc.). Plasmid DNA (10 μg) was added to MDA-MB-435s cells and cells were electroporated (0.22 kV, 960 uF) via Gene Pulser (Biorad laboratories, Hercules, Calif.). 48 hr post-electroporation, cells were transferred to selection medium (600 ug/ml G418).
In order to more properly assess the binding efficacy of the compounds, radioligand binding assays were carried out in the presence of 100% human serum to more accurately reflect the in vivo environment. […] Target compounds were tested to determine their ability to bind with CXCR7 sites on MCF-7 and/or MDA-MB-435S CXCR7 transfected cells. Efficiency-maxim/zed radioligand binding using filtration protocols as described in Dairaghi D J, et al., HHV8-encoded vMIP-I selectively engages chemokine receptor CCR5. Agonist and antagonist profiles of viral chemokines., J. Biol. Chem. 1999 Jul. 30; 274(31): 21569-74 and Gosling J, et al., Cutting edge: identification of a novel chemokine receptor that binds dendritic cell- and T cell-active chemokines including ELC, SLC, and TECK, J. Immunol. 2000 Mar. 15; 164(6):2851-6 was used.
In these assays, MCF-7 and/or MDA-MB-435S cells were interrogated with the target compounds and the ability of these compounds to displace 125 I radiolabeled SDF-1 was assessed using the protocol described in Dairaghi and Gosling. The target compounds were added to the plate to the indicated concentration followed by addition of cells and radiolabeled chemokine (125I SDF-1), both in the following medium (human AB serum with 10 mM HEPES added to stabilize at pH 7.4). All assays were then incubated for 3 hrs at 4° C. with gentle agitation.

Chain of CXCR7 receptor (P25106 whole entry): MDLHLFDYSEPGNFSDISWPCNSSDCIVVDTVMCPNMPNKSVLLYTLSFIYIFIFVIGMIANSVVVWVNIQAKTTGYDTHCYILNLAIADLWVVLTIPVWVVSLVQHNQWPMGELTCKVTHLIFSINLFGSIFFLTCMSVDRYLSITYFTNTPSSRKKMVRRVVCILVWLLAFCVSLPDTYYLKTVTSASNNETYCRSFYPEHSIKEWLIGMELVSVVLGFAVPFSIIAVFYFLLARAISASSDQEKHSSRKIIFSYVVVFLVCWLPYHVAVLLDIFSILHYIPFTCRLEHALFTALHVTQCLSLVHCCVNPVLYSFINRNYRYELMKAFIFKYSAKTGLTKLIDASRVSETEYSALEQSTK

Row | Compound | pIC50
1 | Cc1cn2cccc2c(N2CC[C@H](NC(=O)c3ccn(-c4ccc(F)cc4)n3)C2)n1 [Compound 1.041] | ≥ 6.30
2 | O=C(N[C@H]1CCN(c2nccn3cnnc23)C1)c1cn(-c2ccccc2)cn1 [Compound 1.035] | ≥ 6.30
3 | O=C(N[C@H]1CCN(c2nccn3ccnc23)C1)c1ncn(-c2ccc(F)c(F)c2)n1 [Compound 1.014] | ≥ 6.30
4 | CCc1cn2cccc2c(N2CC[C@H](NC(=O)c3ncn(-c4ccccc4)n3)C2)n1 [Compound 1.015] | ≥ 6.30
5 | Cc1ccc2nc(C(=O)N[C@H]3CCN(c4nc(C)cn5cccc45)C3)ncc2c1 [Compound 1.019] | ≥ 6.30
6 | CCc1cn2cccc2c(N2CC[C@H](NC(=O)c3csc(N4CCC(O)CC4)n3)C2)n1 [Compound 1.012] | ≥ 6.30
7 | CCc1cn2cccc2c(N2CC[C@H](NC(=O)c3ncn(-c4ccc(F)cc4)n3)C2)n1 [Compound 1.013] | ≥ 6.30
8 | Cc1ccc2nc(C(=O)N[C@H]3CCN(c4nccn5ccnc45)C3)ncc2c1 [Compound 1.048] | ≥ 6.30
9 | O=C(N[C@@H]1CCN(c2nccn3ccnc23)C1)c1ncn(-c2ccc(F)cc2)n1 [Compound 1.010] | 5.60 to 6.30
10 | Cc1cn2cccc2c(N2CC[C@H](NC(=O)c3ncn(-c4ccc(Cl)cc4)n3)C2)n1 [Compound 1.022] | ≥ 6.30
11 | O=C(N[C@H]1CCN(c2nccn3cccc23)C1)c1ncc(C2CCCC2)cn1 [Compound 1.028] | ≥ 6.30
12 | Cc1ccccc1-n1ccc(C(=O)N[C@H]2CCN(c3nccn4cnnc34)C2)n1 [Compound 1.054] | ≥ 6.30
13 | O=C(NC1(CO)CCN(c2nccn3cccc23)C1)c1ccn(-c2ccc(Cl)cc2)n1 (stereo not shown) [Compound 1.074] | ≥ 6.30
14 | Cc1ccccc1-c1nc(C(=O)N[C@H]2CCN(c3nccn4cccc34)C2)cs1 [Compound 1.046] | ≥ 6.30
15 | O=C(N[C@H]1CCN(c2nccn3ccnc23)C1)c1coc(-c2ccccc2)n1 [Compound 1.070] | ≥ 6.30
16 | O=C(N[C@H]1CCN(c2nccn3ccnc23)C1)c1cn(-c2ccccc2)cn1 [Compound 1.036] | ≥ 6.30
17 | O=C(N[C@H]1CCN(c2nccn3ncnc23)C1)c1ccn(-c2ccc(F)cc2)n1 [Compound 1.067] | ≥ 6.30
18 | Cc1cn2cccc2c(N2CC[C@H](NC(=O)c3noc(-c4ccccc4)n3)C2)n1 [Compound 1.021] | ≥ 6.30
19 | O=C(N[C@H]1CCN(c2nccn3cccc23)C1)c1csc(N2CCCC2)n1 [Compound 1.038] | ≥ 6.30
20 | Cc1cn2cccc2c(N2CC[C@H](NC(=O)c3ncn(-c4ccc(F)cc4)n3)C2)n1 [Compound 1.020] | ≥ 6.30

Row | Compound | pIC50
21 | O=C(N[C@H]1CCN(c2nccn3cccc23)C1)c1cnc(C2CC2)cn1 [Compound 1.052] | ≥ 6.30
22 | O=C(N[C@H]1CCN(c2nccn3nccc23)C1)c1ncn(-c2ccccc2)n1 [Compound 1.018] | 4.82 to 5.60
23 | CC(C)c1cnc(C(=O)N[C@H]2CCN(c3nccn4ccnc34)C2)nc1 [Compound 1.064] | ≥ 6.30
24 | CC(O)c1cnc(C(=O)N[C@H]2CCN(c3nccn4cccc34)C2)nc1 (stereo partly shown) [Compound 1.033] | 5.60 to 6.30
25 | Cc1nc(C(=O)N[C@H]2CCN(c3nccn4ccnc34)C2)nn1-c1ccc(F)cc1 [Compound 1.001] | ≥ 6.30
26 | CC(C)c1cn2cccc2c(N2CC[C@H](NC(=O)c3ncn(-c4ccc(F)cc4)n3)C2)n1 [Compound 1.007] | 5.60 to 6.30
27 | O=C(NC1(CO)CCN(c2nccn3ccnc23)C1)c1csc(N2CCC(O)CC2)n1 (stereo not shown) [Compound 1.058] | ≥ 6.30
28 | O=C(N[C@H]1CCN(c2nccn3ccnc23)C1)c1csc(N2CCCC2)n1 [Compound 1.034] | ≥ 6.30
29 | Cc1ccccc1-n1ccc(C(=O)N[C@H]2CCN(c3nccn4ccnc34)C2)n1 [Compound 1.057] | ≥ 6.30
30 | Cc1cn2cccc2c(N2CC[C@H](NC(=O)c3coc(-c4ccccc4)n3)C2)n1 [Compound 1.024] | ≥ 6.30
31 | O=C(N[C@H]1CCN(c2nccn3cccc23)C1)c1ncn(-c2ccc(F)cc2)n1 [Compound 1.003] | ≥ 6.30
32 | O=C(NC1(CO)CCN(c2nccn3cccc23)C1)c1csc(N2CCC(O)CC2)n1 (stereo not shown) [Compound 1.072] | ≥ 6.30
33 | O=C(NC1(CO)CCN(c2nccn3ccnc23)C1)c1ncn(-c2ccccc2)n1 (stereo not shown) [Compound 1.050] | ≥ 6.30
34 | O=C(N[C@H]1CCN(c2nccn3cccc23)C1)c1ncc(C2CC2)cn1 [Compound 1.071] | ≥ 6.30
35 | Cc1ccc(-n2cnc(C(=O)N[C@H]3CCN(c4nccn5ccnc45)C3)n2)cc1 [Compound 1.004] | 5.60 to 6.30
36 | Cc1cn2cccc2c(N2CC[C@H](NC(=O)c3ncn(-c4ccccc4)n3)C2)n1 [Compound 1.040] | ≥ 6.30
37 | O=C(N[C@H]1CCN(c2nccn3ccnc23)C1)c1csc(N2CCC2)n1 [Compound 1.026] | ≥ 6.30
38 | Cc1ccc2nc(C(=O)N[C@H]3CCN(c4nccn5cnnc45)C3)ncc2c1 [Compound 1.044] | ≥ 6.30
39 | CN(C)c1cnc(C(=O)N[C@H]2CCN(c3nccn4cccc34)C2)cn1 [Compound 1.049] | ≥ 6.30
40 | CC(C)c1cnc(C(=O)NC2(CO)CCN(c3nccn4cccc34)C2)nc1 (stereo not shown) [Compound 1.060] | ≥ 6.30

Row | Compound | pIC50
41 | O=C(NC1(CO)CCN(c2nccn3ccnc23)C1)c1ccn(-c2ccc(F)cc2)n1 (stereo not shown) [Compound 1.059] | ≥ 6.30
42 | O=C(NC1(CO)CCN(c2nccn3cccc23)C1)c1ncn(-c2ccccc2)n1 (stereo not shown) [Compound 1.051] | ≥ 6.30
43 | Cc1cnc(C(=O)N[C@H]2CCN(c3nccn4cccc34)C2)nc1 [Compound 1.063] | 5.60 to 6.30
44 | Cc1cn2cccc2c(N2CC[C@H](NC(=O)c3cn(-c4ccccc4)cn3)C2)n1 [Compound 1.030] | ≥ 6.30
45 | O=C(N[C@H]1CCN(c2nccn3ccnc23)C1)c1ncn(-c2ccccc2F)n1 [Compound 1.006] | ≥ 6.30
46 | O=C(N[C@H]1CCN(c2nccn3cccc23)C1)c1ncc2cc(Cl)ccc2n1 [Compound 1.053] | ≥ 6.30
47 | O=C(N[C@H]1CCN(c2nccn3cccc23)C1)c1cn(-c2ccccc2)cn1 [Compound 1.039] | ≥ 6.30
48 | CC(C)c1cn2cccc2c(N2CC[C@H](NC(=O)c3csc(N4CCC(O)CC4)n3)C2)n1 [Compound 1.009] | ≥ 6.30
49 | O=C(NC1(CO)CCN(c2nccn3cccc23)C1)c1ccn(-c2ccc(F)cc2)n1 (stereo not shown) [Compound 1.073] | ≥ 6.30
50 | Cc1cn2cccc2c(N2CC[C@H](NC(=O)c3ccn(-c4ccc(Cl)cc4)n3)C2)n1 [Compound 1.029] | ≥ 6.30
51 | CS(=O)(=O)c1ccc(-n2cnc(C(=O)N[C@H]3CCN(c4nccn5ccnc45)C3)n2)cc1 [Compound 1.005] | 4.82 to 5.60
52 | NC(=O)C1(NC(=O)c2ccn(-c3ccc(F)cc3)n2)CCN(c2nccn3cccc23)C1 (stereo not shown) [Compound 1.042] | ≥ 6.30
53 | O=C(N[C@H]1CCN(c2nccn3cccc23)C1)c1cn(-c2ccccc2)nn1 [Compound 1.017] | ≥ 6.30
54 | O=C(NC1(C(=O)O)CCN(c2nccn3cccc23)C1)c1ccn(-c2ccc(F)cc2)n1 (stereo not shown) [Compound 1.043] | 4.82 to 5.60
55 | CC1(O)CCN(c2nc(C(=O)N[C@H]3CCN(c4nccn5ccnc45)C3)cs2)CC1 [Compound 1.056] | 5.60 to 6.30
56 | Cc1cn2cccc2c(N2CC[C@H](NC(=O)c3csc(N4CCC(O)CC4)n3)C2)n1 [Compound 1.037] | ≥ 6.30
57 | Cc1cn2ccnc2c(N2CC[C@H](NC(=O)c3cn(-c4ccccc4)cn3)C2)n1 [Compound 1.031] | ≥ 6.30
58 | O=C(N[C@H]1CCN(c2nccn3cnnc23)C1)c1csc(-c2ccccc2)n1 [Compound 1.066] | ≥ 6.30

From US10287292B2, “CXCR7 antagonists” (CHEMOCENTRYX, INC., priority 2012, dated 2019)
